For assay [1], the system named is CD8+ CTL clone. Description: CD8+ CTL clone survival after TF peptide stimulation, with galectin-1 and inhibitors. It counts as cell-based. The text has this:
The ability of L2hmda to restore this activity is especially significant since TDG, a known galectin inhibitor, is toxic. However, L2hmda is not toxic. […] The CD8+ CTL clone was stimulated with TF peptide for 4 days and cell survival (% of starting number) measured by enumerating viability by trypan blue exclusion.

Assay [2] concerns the target recombinant human galectin-1 (Homo sapiens, UniProt P09382). Nature of the assay: SPR (BIAcore) equilibrium binding to immobilized galectin-1. The note with it: for binding to galectin-1 (in words): SPR assay. The method, then:
(§1) Galectin binding affinity measurements were performed in a surface plasmon resonance (SPR) assay using […] instrument (BIAcore, Inc, Uppsala, Sweden). PBS with 5 mM β-mercaptoethanol was used as running buffer for all experiments. Purified recombinant human galectin-1 and galectin-4 were immobilized at different surface densities on CM5 carboxymethyldextran chip (BIAcore) in the presence of 150 mM lactose, using standard amine coupling chemistry. Galectin immobilization was performed at 5 μl/min flow rate. To ensure the maximum possible immobilization of recombinant proteins, carboxylmethyldextran surface was activated with a 15 min pulse of a mixture of 0.05 M N-hydroxysuccinimide (NHS) with 0.2 M N-ethyl-N′-(dimethylaminopropyl) carbodiimide (EDC). Recombinant galectins, diluted to 30 μg/ml in 10 mM Na Acetate buffer (pH 4.8 for galectin-1 and pH 5.5 for galectin-4) were coupled to the surface during a 15-minute injection. Following galectin injection, remaining activated groups on the surface of the chip were deactivated with a 7 min pulse of 1 M ethanolamine hydrochloride, pH 8.5. Blank, unmodified CM5 surface was used as a negative control for the corrections for refractive index changes due to the presence of lactulosamines.
(§2) Binding of lactulosamines was performed at 80 μl/min flow rate, with injection times of 15 sec. […] Instead, the equilibrium binding levels were examined and determined the equilibrium binding constant using steady state affinity fitting model (BIAevaluation software version 3.1).

Assay [3] concerns the target galectin-1 binding to laminin (Homo sapiens, UniProt P09382). Description: ELISA, inhibition of galectin-1 binding to immobilized laminin. Particulars: for inhibition of binding of galectin-1 to laminin: at 156 μM, galectin-1 2.5 μg/ml (0.17 μM). Here is the method: (§3) Human 90K/MAC-2BP (thereafter called 90K) was purified from transfected EBNA-293 cells (lurisci, I., et al., Clin. Cancer Res. (2000) 6:1389-1393). Laminin was obtained from Boehringer Mannheim GmbH (Germany). The ELISA for galectin binding has been previously described (Tinari, N., et al., Int. J. Cancer (2001) 91:167-172). Briefly, Nunc Maxisorb microtiter wells were coated with 0.5 μg/well of 90K or laminin. Recombinant galectin-1 (2.5 μg/ml or 0.17 μM) was diluted in PBS with 0.1% Tween-20 and added to wells coated with glycoproteins, and galectin-1 binding was detected with anti-galectin-1 rabbit antiserum. In binding-inhibition experiments, recombinant galectin-1 was diluted in PBS-0.1% Tween-20 containing indicated concentration of lactulosamines or lactose.

The subject of assay [4] is CD8+ CTL clone. Nature of the assay: Cytokine production by CD8+ CTL clone after TF peptide stimulation, with galectin-1 and inhibitor. The assay is classed as cell-based. The method, then: Treatment in vitro of CD4+ and CD8+T cells with recombinant soluble galectin-1 inhibits their survival and ability to secrete cytokine, such as interferon-γ and IL-2. […] In FIG. 10A, cells are stimulated by TF peptide and the levels of interferon-γ produced measured in nanogram/milliliter (ng/ml). As shown, galectin-1 inhibits interferon-γ secretion in a dose-dependent manner. […] Similar data were seen when another cytokine, IL-2, was measured (not shown).

Assay [5] has as its target T1, recombinant human galectin-4 (Homo sapiens, UniProt P56470).
T1 construct: cDNA encoding full-length human galectin-4 was amplified from an EST clone; made in house; host or cells: E. coli BL21 (DE3)pLysS
T1 sequence (P56470 1-323): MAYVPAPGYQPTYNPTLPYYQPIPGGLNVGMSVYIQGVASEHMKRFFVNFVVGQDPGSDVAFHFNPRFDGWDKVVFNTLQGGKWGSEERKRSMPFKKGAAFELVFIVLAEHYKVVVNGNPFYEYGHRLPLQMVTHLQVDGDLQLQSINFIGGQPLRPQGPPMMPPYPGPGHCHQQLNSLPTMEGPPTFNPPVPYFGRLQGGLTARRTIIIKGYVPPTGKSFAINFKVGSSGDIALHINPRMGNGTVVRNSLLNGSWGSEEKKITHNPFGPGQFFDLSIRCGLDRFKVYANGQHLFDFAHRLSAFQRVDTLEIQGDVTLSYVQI
Description: SPR (BIAcore) equilibrium binding to immobilized galectin-4. Here is the method: as §1, §2
(SPR reads the build-up and loss of mass on a sensor chip optically.)

A further assay deals with N202.1A tumor cells. Nature of the assay: N202.1A tumor growth in Neu mice. Particulars: 100 μl of 100 μM daily combined with dendritic cell therapy, 25 days, FIG. 11, listed as L2hmda. The assay is classed as in vivo. Here is the method:
Neu mice were inoculated on Day 0 with 10^6 N202.1A tumor cells. The animals were divided into four groups of four mice each. On Day 7, groups 2 and 4 were subjected to dendritic cell therapy which involved immunization with 10^6 dendritic cells pulsed with apoptotic N202.1A cells and intraperitoneal injections of recombinant IL-2 (10^4 1.U./injection) from Day 10 to […]. Groups 3 and 4 received injections of 100 μl of 100 μM L2hmda daily.

Assay [6] has as its target galectin-1 binding to 90K/MAC-2BP (Homo sapiens, UniProt P09382). Description: ELISA, inhibition of galectin-1 binding to immobilized 90K. Particulars: for inhibition of binding of galectin-1 to 90K: at 156 μM, galectin-1 2.5 μg/ml (0.17 μM). The method, then: as §3
In general terms: An ELISA detects its analyte on a solid surface through an enzyme-linked reagent.

For a further assay, the system named is cancer cells. The note with it: cited from earlier work.
Another assay has as its system breast cancer cells. The note with it: nude mouse model; cited from earlier work.
Setting [7] is: SPR steady-state analysis, read-out: KD value for galectin-1.
[8] abbreviates: SPR steady state affinity fit, Table I, read-out: Galectin-4 binding, KD.
The mark [9] stands for this setting: SPR, full-length galectin-4 with two binding domains, read-out: KD for galectin-4.

Several values for one entry are separate records, joined by “and”; a condition that tells them apart may be missing. Equal values may be shown once. Entries after “also recorded” stand apart in the source; their conditions may differ. Read-outs that look alike come from different tables or passages of the source.

recombinant human galectin-1, sequence (P09382 whole entry): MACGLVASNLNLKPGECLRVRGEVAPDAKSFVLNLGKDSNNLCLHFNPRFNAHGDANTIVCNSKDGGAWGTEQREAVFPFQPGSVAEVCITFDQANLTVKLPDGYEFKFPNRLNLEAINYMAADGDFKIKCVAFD
galectin-1 binding to laminin, sequence (P09382 2-135 limits assumed): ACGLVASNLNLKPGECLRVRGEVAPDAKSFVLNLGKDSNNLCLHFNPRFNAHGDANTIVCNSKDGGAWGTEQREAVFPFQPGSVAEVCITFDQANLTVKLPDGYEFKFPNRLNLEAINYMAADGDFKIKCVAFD
galectin-1 binding to 90K/MAC-2BP, sequence (P09382 2-135 limits assumed): as above

What is called Kd is a measure of binding affinity in units of concentration. For the compound `OCC1OC(OC2C(O)COC(O)(CNCCCCCCNCC3(O)OCC(O)C(OC4OC(CO)C(O)C(O)C4O)C3O)C2O)C(O)C(O)C1O` (centres unmarked) [Dilactulose-hexamethylenediamine, dilactulose-hexamethylenediamine], the “prevention of cell death induced by galectin-1” value in the assay with CD8+ CTL clone [1] (4 days, trypan blue exclusion, FIG. 10B) was “prevented the majority of cell death”. In the assay on CD8+ CTL clone [1] (in presence of galectin-1, FIG. 10B), the “restoring the ability of CTL's to proliferate” value is “able to restore”. The “half-life, weighted average of the two components of dissociation rate” value in assay [2] came out at 7 s. For the same compound, the “binding to galectin-1 (in words)” value in [2] is “superior in binding”; in assay [2] (listed as L2hmda) it was “significantly stronger”. The Kd is around 1.5 µM in assay [2] (setting [7]); 78 µM and 83 µM and 105 µM and 115 µM in assay [5] (setting [8]); around 80 µM in assay [5] (setting [9]). The “half-life, fast component” value in [2] (corresponding to fast koff) was 3 s. Besides, the “half-life, slow component” value in assay [2] (corresponding to slow koff) stood at 19 s. For the same compound, the “koff, fast component” value in assay [2] (two-component dissociation model, fast component 40% of overall rate) is 0.16 to 0.2 s⁻¹. Besides, in assay [2] (two-component dissociation model, slow component 60% of overall rate), the “koff, slow component” value was determined as 0.036 s⁻¹. Besides, the “inhibition of galectin-1 binding to laminin (in words)” value in assay [3] (ELISA, FIG. 9B) was “most potent inhibitor”. For the same compound, the “inhibition of binding of galectin-1 to laminin” value in assay [3] is “about 70%”. For the same compound, the “restoration of interferon secretion” value with CD8+ CTL clone [4] (galectin-1 7 μM, L2hmda 200 μM, FIG. 10C) is “restores the interferon 7 secretion to normal”. In addition, the “galectin-1 mediated suppression of IFN-γ production by the CTL” value in the assay on CD8+ CTL clone [4] (increasing concentrations (50-200 uM) of inhibitor) is reported as “completely prevented”. Moreover, in assay [5] (SPR assay), the “binding to galectin-4 (in words)” value is “superior in binding”. The tumor volume entry in the assay with N202.1A tumor cells is listed as “superior to treatment with either alone; also recorded: very little tumor volume enhancement”. Besides, the “inhibition of galectin-1 binding to 90K (in words)” value in [6] (ELISA, FIG. 9A) is “most potent inhibitor”. In [6], the “inhibition of binding of galectin-1 to 90K” value is “about 80%”.

`CC(C)CC(NCC(=O)C(O)C(OC1OC(CO)C(O)C(O)C1O)C(O)CO)C(=O)O` [Lactulose-L-leucine, lactulose-L-leucine]: in [2], the “binding to galectin-1 (in words)” value is on record as “could bind”. Further, the Kd in assay [2] (SPR steady state affinity fit, Table I, read-out: Galectin-1 binding, KD) was 113 µM and 200 µM; in assay [2] (setting [7]), around 110 µM; in [5] (setting [8]), 505 µM and 800 µM and 1010 µM; in assay [5] (setting [9]), around 800 µM. Besides, in the assay with cancer cells, the “adhesion of cancer cells to endothelium” value was “blocks”. For the same compound, the “inhibition of binding of galectin-1 to laminin” value in [3] is around 40%. In assay [6], the “inhibition of binding of galectin-1 to 90K” value is given as “about 50%”. Further, in the assay with breast cancer cells, the “clonogenic growth and metastasis of breast cancer cells” value is “block”.

The values above are taken from patent publication US20070167405A1, “Galectins -1 and -4 in tumor development” (priority 2001, published 2007).
